As usually defined, the IC50 is the concentration that gives 50% inhibition.

IC50 data for 10 compounds are collected here from ChEMBL document CHEMBL2010748, “Structure-Activity Relationship Studies of HIV-1 Integrase Oligonucleotide Inhibitors” (ACS Med Chem Lett, 2011).

SMILES strings stand for the structures.

For this assay, the target named is Human immunodeficiency virus type 1 integrase (Human immunodeficiency virus 1, UniProt Q7ZJM1). Briefly: Inhibition of Human immunodeficiency virus 1 integrase 3'-processing activity expressed in Escherichia coli using 21-mer DNA and Mg2+ after 2 hrs by polyacrylamide gel electrophoresis.
Sequence of Human immunodeficiency virus type 1 integrase (Q7ZJM1 whole entry): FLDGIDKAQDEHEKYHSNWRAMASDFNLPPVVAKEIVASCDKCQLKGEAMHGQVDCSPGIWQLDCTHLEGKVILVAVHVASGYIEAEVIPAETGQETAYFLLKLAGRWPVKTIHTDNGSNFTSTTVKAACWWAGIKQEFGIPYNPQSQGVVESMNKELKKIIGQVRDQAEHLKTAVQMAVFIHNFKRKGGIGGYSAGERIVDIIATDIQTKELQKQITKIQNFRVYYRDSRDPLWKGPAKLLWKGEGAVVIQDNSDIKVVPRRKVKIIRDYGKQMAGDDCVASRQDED
Compound `CCCCCCCC/C=C\CCCCCCCC(=O)NCCCOCC(O)COP(=O)(O)O[C@H]1C[C@H](n2cc(C)c(=O)[nH]c2=O)O[C@@H]1COP(=O)(O)O[C@H]1C[C@H](n2cnc3c(=O)[nH]c(N)nc32)O[C@@H]1COP(=O)(O)O[C@H]1C[C@H](n2cc(C)c(=O)[nH]c2=O)O[C@@H]1COP(=O)(O)O[C@H]1C[C@H](n2cnc3c(=O)[nH]c(N)nc32)O[C@@H]1COP(=O)(O)O[C@H]1C[C@H](n2cc(C)c(=O)[nH]c2=O)O[C@@H]1COP(=O)(O)O[C@H]1C[C@H](n2cc(C)c(=O)[nH]c2=O)O[C@@H]1COP(=O)(O)O[C@H]1C[C@H](n2cc(C)c(=O)[nH]c2=O)O[C@@H]1COP(=O)(O)O[C@H]1C[C@H](n2cc(C)c(=O)[nH]c2=O)O[C@@H]1COP(=O)(O)O[C@H]1C[C@H](n2cc(C)c(=O)[nH]c2=O)O[C@@H]1COP(=O)(O)O[C@H]1C[C@H](n2cnc3c(=O)[nH]c(N)nc32)O[C@@H]1COP(=O)(O)O[C@H]1C[C@H](n2cnc3c(=O)[nH]c(N)nc32)O[C@@H]1CO` (stereo not given in full) came in with a half-inhibitory concentration (IC50) of 0.2 µM.

In turn, `Cc1cn([C@H]2C[C@H](OP(=O)(O)OC[C@H]3O[C@@H](n4cc(C)c(=O)[nH]c4=O)C[C@@H]3OP(=O)(O)OC[C@H]3O[C@@H](n4cc(C)c(=O)[nH]c4=O)C[C@@H]3OP(=O)(O)OC[C@H]3O[C@@H](n4cnc5c(=O)[nH]c(N)nc54)C[C@@H]3OP(=O)(O)OC[C@H]3O[C@@H](n4cc(C)c(=O)[nH]c4=O)C[C@@H]3OP(=O)(O)OC[C@H]3O[C@@H](n4cnc5c(=O)[nH]c(N)nc54)C[C@@H]3OP(=O)(O)OC[C@H]3O[C@@H](n4cc(C)c(=O)[nH]c4=O)C[C@@H]3O)[C@@H](COP(=O)(O)O[C@H]3C[C@H](n4cc(C)c(=O)[nH]c4=O)O[C@@H]3COP(=O)(O)O[C@H]3C[C@H](n4cc(C)c(=O)[nH]c4=O)O[C@@H]3COP(=O)(O)O[C@H]3C[C@H](n4cnc5c(=O)[nH]c(N)nc54)O[C@@H]3COP(=O)(O)O[C@H]3C[C@H](n4cnc5c(=O)[nH]c(N)nc54)O[C@@H]3COP(=O)(O)OCCCCCCNC(=O)c3cc(Cl)c(-c4c5cc(Cl)c(O)c(Cl)c5nc5c(Cl)c(O)c(Cl)cc45)c(C(=O)O)c3Cl)O2)c(=O)[nH]c1=O` displayed an IC50 of 0.052 µM. As for `Cc1cn([C@H]2C[C@H](OP(=O)(O)OC[C@H]3O[C@@H](n4cc(C)c(=O)[nH]c4=O)C[C@@H]3OP(=O)(O)OC[C@H]3O[C@@H](n4cc(C)c(=O)[nH]c4=O)C[C@@H]3OP(=O)(O)OC[C@H]3O[C@@H](n4cnc5c(=O)[nH]c(N)nc54)C[C@@H]3OP(=O)(O)OC[C@H]3O[C@@H](n4cc(C)c(=O)[nH]c4=O)C[C@@H]3OP(=O)(O)OC[C@H]3O[C@@H](n4cnc5c(=O)[nH]c(N)nc54)C[C@@H]3OP(=O)(O)OC[C@H]3O[C@@H](n4cc(C)c(=O)[nH]c4=O)C[C@@H]3O)[C@@H](COP(=O)(O)O[C@H]3C[C@H](n4cc(C)c(=O)[nH]c4=O)O[C@@H]3COP(=O)(O)O[C@H]3C[C@H](n4cc(C)c(=O)[nH]c4=O)O[C@@H]3COP(=O)(O)O[C@H]3C[C@H](n4cnc5c(=O)[nH]c(N)nc54)O[C@@H]3COP(=O)(O)O[C@H]3C[C@H](n4cnc5c(=O)[nH]c(N)nc54)O[C@@H]3COP(=O)(O)O[C@@H]3C[C@@H](CO)N(C(=O)CCCCCNC(=O)c4ccc(C(=O)O)c(-c5c6ccc(=O)cc-6oc6cc(O)ccc56)c4)C3)O2)c(=O)[nH]c1=O`, 0.32 µM corresponded to half-maximal inhibition (IC50). The result for `Cc1cn([C@H]2C[C@H](OP(=O)(O)OC[C@H]3O[C@@H](n4cnc5c(=O)[nH]c(N)nc54)C[C@@H]3OP(=O)(O)OC[C@H]3O[C@@H](n4cc(C)c(=O)[nH]c4=O)C[C@@H]3OP(=O)(O)OC[C@H]3O[C@@H](n4cnc5c(=O)[nH]c(N)nc54)C[C@@H]3OP(=O)(O)OC[C@H]3O[C@@H](n4cc(C)c(=O)[nH]c4=O)C[C@@H]3OP(=O)(O)OCCCCCCNC(=S)Nc3ccc(-c4c5cc(Br)c(=O)c(Br)c-5oc5c(Br)c(O)c(Br)cc45)c(C(=O)O)c3)[C@@H](COP(=O)(O)O[C@H]3C[C@H](n4cc(C)c(=O)[nH]c4=O)O[C@@H]3COP(=O)(S)O[C@H]3C[C@H](n4cc(C)c(=O)[nH]c4=O)O[C@@H]3COP(=O)(S)O[C@H]3C[C@H](n4cc(C)c(=O)[nH]c4=O)O[C@@H]3COP(=O)(S)O[C@H]3C[C@H](n4cc(C)c(=O)[nH]c4=O)O[C@@H]3COP(=O)(O)O[C@H]3C[C@H](n4cnc5c(=O)[nH]c(N)nc54)O[C@@H]3COP(=O)(O)O[C@H]3C[C@H](n4cnc5c(=O)[nH]c(N)nc54)O[C@@H]3CO)O2)c(=O)[nH]c1=O` (stereo not given in full) reads 0.022 µM; that for `CO[C@@H]1[C@H](OP(=O)(O)OC[C@H]2O[C@@H](n3ccc(=O)[nH]c3=O)[C@H](OC)[C@@H]2OP(=O)(O)OC[C@H]2O[C@@H](n3ccc(=O)[nH]c3=O)[C@H](OC)[C@@H]2OP(=O)(O)OC[C@H]2O[C@@H](n3cnc4c(=O)[nH]c(N)nc43)[C@H](OC)[C@@H]2OP(=O)(O)OC[C@H]2O[C@@H](n3ccc(=O)[nH]c3=O)[C@H](OC)[C@@H]2OP(=O)(O)OC[C@H]2O[C@@H](n3cnc4c(=O)[nH]c(N)nc43)[C@H](OC)[C@@H]2OP(=O)(O)OC[C@H]2O[C@@H](n3ccc(=O)[nH]c3=O)[C@H](OC)[C@@H]2OP(=O)(O)OCCCCCCNC(=S)Nc2ccc(-c3c4cc(Br)c(=O)c(Br)c-4oc4c(Br)c(O)c(Br)cc34)c(C(=O)O)c2)[C@@H](COP(=O)(O)O[C@H]2[C@@H](OC)[C@H](n3ccc(=O)[nH]c3=O)O[C@@H]2COP(=O)(O)O[C@H]2[C@@H](OC)[C@H](n3ccc(=O)[nH]c3=O)O[C@@H]2COP(=O)(O)O[C@H]2[C@@H](OC)[C@H](n3cnc4c(=O)[nH]c(N)nc43)O[C@@H]2COP(=O)(O)O[C@H]2[C@@H](OC)[C@H](n3cnc4c(=O)[nH]c(N)nc43)O[C@@H]2CO)O[C@H]1n1ccc(=O)[nH]c1=O`, 0.048 µM; that for `Cc1cn([C@H]2C[C@H](OP(=O)(O)OC[C@H]3O[C@@H](n4cc(C)c(=O)[nH]c4=O)C[C@@H]3OP(=O)(O)OC[C@H]3O[C@@H](n4cc(C)c(=O)[nH]c4=O)C[C@@H]3OP(=O)(S)OC[C@H]3O[C@@H](n4cnc5c(=O)[nH]c(N)nc54)C[C@@H]3OP(=O)(O)OC[C@H]3O[C@@H](n4cc(C)c(=O)[nH]c4=O)C[C@@H]3OP(=O)(S)OC[C@H]3O[C@@H](n4cnc5c(=O)[nH]c(N)nc54)C[C@@H]3OP(=O)(O)OC[C@H]3O[C@@H](n4cc(C)c(=O)[nH]c4=O)C[C@@H]3OP(=O)(S)OCCCCCCNC(=S)Nc3ccc(-c4c5cc(Br)c(=O)c(Br)c-5oc5c(Br)c(O)c(Br)cc45)c(C(=O)O)c3)[C@@H](COP(=O)(O)O[C@H]3C[C@H](n4cc(C)c(=O)[nH]c4=O)O[C@@H]3COP(=O)(O)O[C@H]3C[C@H](n4cc(C)c(=O)[nH]c4=O)O[C@@H]3COP(=O)(O)O[C@H]3C[C@H](n4cnc5c(=O)[nH]c(N)nc54)O[C@@H]3COP(=O)(O)O[C@H]3C[C@H](n4cnc5c(=O)[nH]c(N)nc54)O[C@@H]3CO)O2)c(=O)[nH]c1=O` (stereo not given in full), 0.02 µM.

The compound `Cc1cn([C@H]2C[C@H](OP(=O)(S)OC[C@H]3O[C@@H](n4cc(C)c(=O)[nH]c4=O)C[C@@H]3OP(=O)(S)OC[C@H]3O[C@@H](n4cc(C)c(=O)[nH]c4=O)C[C@@H]3OP(=O)(S)OC[C@H]3O[C@@H](n4cnc5c(=O)[nH]c(N)nc54)C[C@@H]3OP(=O)(S)OC[C@H]3O[C@@H](n4cc(C)c(=O)[nH]c4=O)C[C@@H]3OP(=O)(S)OC[C@H]3O[C@@H](n4cnc5c(=O)[nH]c(N)nc54)C[C@@H]3OP(=O)(S)OC[C@H]3O[C@@H](n4cc(C)c(=O)[nH]c4=O)C[C@@H]3OP(=O)(S)OCCCCCCNC(=S)Nc3ccc(-c4c5cc(Br)c(=O)c(Br)c-5oc5c(Br)c(O)c(Br)cc45)c(C(=O)O)c3)[C@@H](COP(=O)(S)O[C@H]3C[C@H](n4cc(C)c(=O)[nH]c4=O)O[C@@H]3COP(=O)(S)O[C@H]3C[C@H](n4cc(C)c(=O)[nH]c4=O)O[C@@H]3COP(=O)(S)O[C@H]3C[C@H](n4cnc5c(=O)[nH]c(N)nc54)O[C@@H]3COP(=O)(S)O[C@H]3C[C@H](n4cnc5c(=O)[nH]c(N)nc54)O[C@@H]3CO)O2)c(=O)[nH]c1=O` (stereo not given in full) came in with an IC50 of 0.018 µM.

`Cc1cn([C@H]2C[C@H](O)[C@@H](COP(=O)(O)O[C@H]3CCO[C@@H]3COP(=O)(O)O[C@H]3CCO[C@@H]3COP(=O)(O)O[C@H]3CCO[C@@H]3COP(=O)(O)O[C@H]3CCO[C@@H]3COP(=O)(O)O[C@H]3CCO[C@@H]3COP(=O)(O)O[C@H]3CCO[C@@H]3COP(=O)(O)O[C@H]3CCO[C@@H]3COP(=O)(O)O[C@H]3CCO[C@@H]3COP(=O)(O)O[C@H]3CCO[C@@H]3COP(=O)(O)O[C@H]3CCO[C@@H]3COP(=O)(O)OCCCCCCNC(=O)c3cc(Cl)c(C(=O)O)c(-c4c5cc(Cl)c(=O)c(Cl)c-5oc5c(Cl)c(O)c(Cl)cc45)c3Cl)O2)c(=O)[nH]c1=O`: the IC50 came to 1.2 µM. The result for `Cc1cn([C@H]2C[C@H](OP(=O)(O)OC[C@H]3OCC[C@@H]3OP(=O)(O)OC[C@H]3OCC[C@@H]3OP(=O)(O)OC[C@H]3OCC[C@@H]3OP(=O)(O)OC[C@H]3OCC[C@@H]3OP(=O)(O)OC[C@H]3OCC[C@@H]3OP(=O)(O)OC[C@H]3OCC[C@@H]3OP(=O)(O)OC[C@H]3O[C@@H](n4cc(C)c(=O)[nH]c4=O)C[C@@H]3O)[C@@H](COP(=O)(O)O[C@H]3C[C@H](n4cc(C)c(=O)[nH]c4=O)O[C@@H]3COP(=O)(O)O[C@H]3C[C@H](n4cnc5c(=O)[nH]c(N)nc54)O[C@@H]3COP(=O)(O)O[C@H]3C[C@H](n4cnc5c(=O)[nH]c(N)nc54)O[C@@H]3COP(=O)(O)OCCCCCCNC(=O)c3cc(Cl)c(C(=O)O)c(-c4c5cc(Cl)c(=O)c(Cl)c-5oc5c(Cl)c(O)c(Cl)cc45)c3Cl)O2)c(=O)[nH]c1=O` reads 0.25 µM; that for `Cc1cn([C@H]2C[C@H](OP(=O)(O)OC[C@H]3O[C@@H](n4cnc5c(=O)[nH]c(N)nc54)C[C@@H]3OP(=O)(O)OC[C@H]3O[C@@H](n4cc(C)c(=O)[nH]c4=O)C[C@@H]3OP(=O)(O)OC[C@H]3O[C@@H](n4cnc5c(=O)[nH]c(N)nc54)C[C@@H]3OP(=O)(O)OC[C@H]3O[C@@H](n4cc(C)c(=O)[nH]c4=O)C[C@@H]3O)[C@@H](COP(=O)(O)OCCCOP(=O)(O)OCCCOP(=O)(O)OCCCOP(=O)(O)OCCCOP(=O)(O)OCCCOP(=O)(O)OCCCOP(=O)(O)OCCCCCCNC(=O)c3cc(Cl)c(C(=O)O)c(-c4c5cc(Cl)c(=O)c(Cl)c-5oc5c(Cl)c(O)c(Cl)cc45)c3Cl)O2)c(=O)[nH]c1=O`, 0.25 µM.
